According to patent US11400089B2, “Multikinase inhibitors and uses in reproductive and digestive tract fibrosis” (AIVIVA BIOPHARMA, INC., priority 2017, dated 2022):
Counter-ions that a name gives are not always drawn.

What was measured:
[1] = system: testosterone and phenylephrine induced benign prostate hyperplasia; assay: testosterone and phenylephrine induced benign prostate hyperplasia in rats (Example 1); assay type: in vivo, Male Wistar rats; conditions: for epithelial hyperplasia score, representative image of dorsolateral prostate: FIG. 2; for mean dorsolateral prostate hyperplasia scores compared to vehicle treatment: induced rats, intra-prostate days 15 and 29, axitinib, sorafenib, FIG. 3; for mean prostate weight (prostate weight/100 g body weight): day 42, FIG. 1
Description: Wistar and Sprague-Dawley strains of rats are susceptible to developing benign prostatic hyperplasia after treatment with exogenous testosterone and can serve as a model of hyperplasia induced by endogenous hormones, i.e., BPH in males and uterine fibroids (UF) in females. A study was conducted to determine the effects of test compounds and vehicle on testosterone and phenylephrine induced benign prostate hyperplasia in rats. Male Wistar rats were induced with testosterone (2 mg/kg) plus phenylephrine (5 mg/kg) administered daily by subcutaneous injection on days 1 through 28. Vehicle or the multikinase test compounds, axitinib (1%), sorafenib (1%), pirfenidone (2.5%) and riociguat (1%), were administered by intra-prostate injection (0.2 mL) on days 15 and 29. Animals were euthanized on day 42. Body weights were determined. Prostate glands were harvested and weighed.
Prostate weight/100 g body weight was determined for each treatment group (FIG. 1). […] Rather, only multikinase inhibitors with a certain inhibitory spectrum would work.
At necropsy, the dorsolateral and ventral lobes of the prostate were separated and cut into halves. The left halves were fixed in 10% neutral buffered formalin, sectioned, and stained with Hematoxylin and Eosin (H&E). Glandular hyperplasia was recognized as an increase in epithelial cells within normal appearing gland profiles, reflected by stratification of epithelial cells and increased presence of epithelial tufting and papillary projections (FIG. 2). Stromal changes were examined microscopically. These changes included inflammation and tissue fibroplasia. Each section was given a severity score ranging from 0 (not present) through 5 (severe).

[2] = system: full-thickness dermal wounds; assay: full-thickness dermal wounds in rabbit ear, histopathology (Example 5); assay type: in vivo, New Zealand White rabbits; parameters: average total score of test wounds lower than untreated/control wounds by / Neovascularization (histopathology score, treated mean) / Fibrosis/Collagen (histopathology score, treated mean) / Reepithelialization (histopathology score, treated mean) / Total Score (histopathology, treated mean): scale not given here; conditions: for Fibrosis/Collagen (histopathology score, treated mean) / Neovascularization (histopathology score, treated mean) / Reepithelialization (histopathology score, treated mean) / Total Score (histopathology, treated mean): 1% intradermal dosing days 15 and 29, Day 42
Description: Test compounds were examined in full-thickness dermal wounds in rabbits. Seven male New Zealand White rabbits, ranging in body weight from 3.03 to 3.40 kg were used in this study. Four wounds were placed on the ventral surface of both ears using an 8 mm skin punch biopsy. Axitinib (1.0%), nintedanib (1.0%), lenvatinib (1.0%), sorafenib (1.0%) and sunitinib (1.0%) were administered by intradermal or intralesional injection on days 15 and 29 following surgery. Animals were euthanized on Day 42 and trauma sites were harvested and divided in half. One half was preserved in formalin for histological examination and the other half frozen for TGF beta analysis. Tissue H&E staining was evaluated semi-quantitatively for inflammation and neovascularization. Tissue fibrosis and collagen organization were evaluated by Mason's trichrome staining. Scores for four intradermal sites receiving test articles were averaged for each rabbit. Most scar tissues were composed of neovascularization, fibroblast hyperplasia, collagen disorganization and re-epithelialization.

[3] = system: testosterone and phenylephrine induced benign prostate hyperplasia; assay: testosterone and phenylephrine induced benign prostate hyperplasia in rats (Example 3); assay type: in vivo, Male Wistar rats; conditions: for epithelial (glandular) hyperplasia score, dorsolateral prostate, representative image: grade 0 (not present) to 5 (severe), FIG. 4
Description: This study was conducted to determine the effects of multikinase inhibitors and vehicle on testosterone and phenylephrine induced benign prostate hyperplasia in rats. Male Wistar rats were induced with testosterone (2 mg/kg) plus phenylephrine (5 mg/kg) administered daily by subcutaneous injection on days 5 through 32. Vehicle or test compounds (all 1% w/v), nintedanib, sunitinib or lenvatinib and doxazosin mesylate, were administered by intra-prostate injection (0.4 ml) in dorsolateral and ventral lobes on days 1 and 18. Animals were euthanized on day 32.
At necropsy, the ventral and dorsolateral lobes of the prostate were separated and then cut into halves. The left halves were fixed in 10% neutral buffered formalin, sectioned, and stained with Hematoxylin and Eosin (H&E). Histological changes in these sections were scored. Epithelial hyperplasia was recognized as an increase in epithelial cells within normal-appearing gland profiles, primarily reflected by stratification of epithelial cells and increased presence of epithelial tufting and papillary projections. A severity grade of 0 (not present) through 5 (severe) was assigned to each sample.

[4] = system: suture induced ocular fibrosis; assay: suture induced ocular fibrosis model in rabbits (Example 4); assay type: in vivo
Description: A study was conducted to determine the potential beneficial effects of topical administration of test compounds and vehicle in a suture induced ocular fibrosis model in rabbits. Sutures were placed intrastromally, under a microscope, in the cornea of rabbits. In each eye, one 9.0 silk suture was placed, in a vertical position, temporal to the center of the cornea and a second suture was placed nasal to the corneal center. Each suture had two stromal incursions approximately 2 mm from the limbus. Test compounds having a certain spectrum of multikinase inhibition activities or vehicle were topically instilled (35 μL/eye) in the eyes three times daily for 10 days following the day of surgery. The treatment groups include vehicle, axitinib (0.3%), nintedanib (0.3%), pirfenidone (1%), riociguat (0.3%), sorafenib (0.3%) and lenvatinib (0.3%). Six left eyes were used per treatment group.
During the in-life phase, gross ocular observations of very slight to moderate conjunctival congestion and swelling were similar among groups, including the vehicle control. The animals were sacrificed on Day 11 and eyes enucleated and dissected for histopathological evaluation.

TGF beta mRNA expression = TGF beta mRNA expression in rabbit dermal wound model (Example 5); assay type: in vivo, New Zealand White rabbits; conditions: 1% intradermal days 15 and 29; Day 42; FIG. 10
Description: Test compounds were examined in full-thickness dermal wounds in rabbits. Seven male New Zealand White rabbits, ranging in body weight from 3.03 to 3.40 kg were used in this study. Four wounds were placed on the ventral surface of both ears using an 8 mm skin punch biopsy. Axitinib (1.0%), nintedanib (1.0%), lenvatinib (1.0%), sorafenib (1.0%) and sunitinib (1.0%) were administered by intradermal or intralesional injection on days 15 and 29 following surgery. Animals were euthanized on Day 42 and trauma sites were harvested and divided in half. One half was preserved in formalin for histological examination and the other half frozen for TGF beta analysis.
TGF beta mRNA expression in treated trauma samples was compared to expression in untreated samples. In general, TGF beta expression in treated samples was lower relative to untreated trauma samples.

[5] = system: TGF beta 1 protein levels; assay: TGF beta 1 protein level (ELISA) in pig linear incision wound model (Example 6); assay type: in vivo, Gottingen minipigs; conditions: 16 mg per wound site intradermal; Days 4, 7 and 9; FIG. 11
Description: Full-thickness linear incision wounds were created in Gottingen minipigs on Day 1. 10 wounds approximately 3 cm in length and spaced at least 5 cm apart were created on the dorsal surface of the animals, perpendicular to the spine. Test agents included nintedanib (2%), lenvatinib (2%), sorafenib (1%), axitinib (2%) and vehicle control. Test agents were administered by intradermal injection immediately after wound creation. The dose of nintedanib, lenvatinib, sorafenib, or axitinib was 16 mg per wound site. Three minipigs were dosed in a similar manner. One minipig was sacrificed on Day 4, one on Day 7, and one on Day 9.
At the time of sacrifice, two dermal punch biopsies (4 mm) from each side of the wound sites were collected. Two biopsies were flash frozen in liquid nitrogen and stored at −80° C. prior to processing by protein extraction and ELISA (enzyme-linked immunosorbent assay) analysis. TGF beta protein levels were measured on Days 4, 7 and 9.

[6] = TE+PE induced rats, axitinib 1%, sorafenib 1%, pirfenidone 2.5%, severity score 0 (not present) to 5 (severe), induced vehicle group score=2
[7] = TE+PE induced rats, intra-prostate 0.4 ml days 1 and 18, day 32, induced vehicle score=4
[8] = 1% intradermal, rabbit ear wound

For CNC(=O)c1ccccc1Sc1ccc2c(/C=C/c3ccccn3)n[nH]c2c1 [axitinib], the “epithelial hyperplasia score, representative image of dorsolateral prostate” value (from here on “epithelial hyperplasia score”) [1, 6] was 1, the “Fibrosis/Collagen (histopathology score, treated mean)” value ([2]; rabbit ear wound) was 3.3 and the “Neovascularization (histopathology score, treated mean)” value ([2]; rabbit ear wound) was 1. For the same molecule, the “Reepithelialization (histopathology score, treated mean)” value ([2]; rabbit ear wound) was 0.3, the “Total Score (histopathology, treated mean)” value ([2]; rabbit ear wound) was 4.6 and the “average total score of test wounds lower than untreated/control wounds by” value ([2]; 1% intradermal, difference treated vs control) was 1.4.
COc1cc2nc(N3CCN(C(=O)C4COc5ccccc5O4)CC3)nc(N)c2cc1OC (centres unmarked) [doxazosin, doxazosin mesylate] was tested, and the “epithelial (glandular) hyperplasia score, dorsolateral prostate, representative image” value [3, 7] was 3 and the “epithelial (glandular) hyperplasia score, ventral prostate, representative image” value ([3]; TE+PE induced rats, intra-prostate 0.4 ml days 1 and 18, day 32, grade 0 to 5, induced vehicle score=4, FIG. 5) was 3.
Cc1ccc(=O)n(-c2ccccc2)c1 [pirfenidone] was tested, and the “epithelial hyperplasia score” value [1, 6] was 1 and the “mean dorsolateral prostate hyperplasia scores compared to vehicle treatment” value ([1]; riociguat 1%, pirfenidone 2.5%) was “demonstrated a decrease in hyperplasia scores”.
For COC(=O)N(C)c1c(N)nc(-c2nn(Cc3ccccc3F)c3ncccc23)nc1N [riociguat], the “epithelial hyperplasia score” value ([1]; TE induced rat, riociguat 1%, severity score 0 to 5, TE-induced group 6 score=2) was 1, the “mean prostate weight (prostate weight/100 g body weight)” value ([1]; TE induced rats, riociguat 1% intra-prostate days 15 and 29, compared to group 6) was “resulted in a reduction in the mean prostate weight” and the “mean dorsolateral prostate hyperplasia scores compared to vehicle treatment” value ([1]; riociguat 1%, pirfenidone 2.5%) was “demonstrated a decrease in hyperplasia scores”.
CNC(=O)c1cc(Oc2ccc(NC(=O)Nc3ccc(Cl)c(C(F)(F)F)c3)cc2)ccn1 [sorafenib] was tested, and the “areas of neovascularization on the corneal surface” value ([4]; 0.3% topical 35 μL/eye three times daily for 10 days, FIG. 8) was “efficacious in reducing the areas of neovascularization”, the “fibroplasia and/or collagen density (histological staining)” value ([4]; 0.3% topical three times daily for 10 days, Day 11, FIG. 9) was “little or no effect on fibroplasia or collagen formation” and the “alpha SMA staining (immunohistochemical analysis)” value ([4]; 0.3% topical three times daily for 10 days, relative to vehicle, FIG. 9) was “no effect on alpha SMA relative to vehicle treatment”. For the same molecule, the “mean prostate weight (prostate weight/100 g body weight)” value ([1]; TE+PE induced rats, 1% test article, intra-prostate 0.2 mL days 15 and 29, compared to vehicle-treated group 1) was “did not show a reduction in the mean prostate weight”, the “epithelial hyperplasia score” value [1, 6] was 2 and the “mean dorsolateral prostate hyperplasia scores compared to vehicle treatment” value ([1]; riociguat 1%, pirfenidone 2.5%) was “did not lead to reduction in hyperplasia”. The “mean folds of TGF beta mRNA expression vs untreated trauma samples” value (TGF beta mRNA expression) was “do not show mean TGF beta expression levels significantly different from the untreated trauma samples”, the “TGF beta 1 protein levels in wound” value [5] was “much less effective” and the “Fibrosis/Collagen (histopathology score, treated mean)” value ([2]; rabbit ear wound) was 2.5. For the same molecule, the “Neovascularization (histopathology score, treated mean)” value ([2]; rabbit ear wound) was 3, the “Reepithelialization (histopathology score, treated mean)” value ([2]; rabbit ear wound) was 0.3 and the “Total Score (histopathology, treated mean)” value ([2]; rabbit ear wound) was 5.8. The “angiogenesis and fibrosis at treated trauma sites (histopathology summary)” value [2, 8] was “do not show any reduction in angiogenesis and fibrosis”, the “fibrosis compared with control wound sites” value [2, 8] was “similar, or increased fibrosis compared to control sites” and the “neovascularization compared with untreated wounds” value [2, 8] was “slightly increased neovascularization”. The “scar formation overall compared with control sites” value [2, 8] was “does not appear to have reduced scar formation”.
With CCN(CC)CCNC(=O)c1c(C)[nH]c(/C=C2\C(=O)Nc3ccc(F)cc32)c1C [sunitinib] the “epithelial (glandular) hyperplasia score, ventral prostate, representative image” value ([3]; 768 h) was 3, the “epithelial (glandular) hyperplasia score, dorsolateral prostate, representative image” value [3, 7] was 3 and the “Fibrosis/Collagen (histopathology score, treated mean)” value ([2]; rabbit ear wound) was 3.7. For the same molecule, the “Neovascularization (histopathology score, treated mean)” value ([2]; rabbit ear wound) was 4, the “Reepithelialization (histopathology score, treated mean)” value ([2]; rabbit ear wound) was 0 and the “Total Score (histopathology, treated mean)” value ([2]; rabbit ear wound) was 7.7.
